From patent publication US8217066B2, “Compounds as lysophosphatidic acid receptor antagonists” (Amira Pharmaceuticals, Inc., priority 2009, dated 2012)
pIC50: −log10 of the molar value.

Experiments:
[1] = test system: highly peritoneal metastatic pancreatic cancer cell line; details: cited from earlier work
[2] = test system: pancreatic cancer cell lines; details: cited from earlier work
LPA receptor = details: compared with LPA1 (−/−) mice, in which renal fibrosis was significantly attenuated; cited from earlier work
[3] = test system: A2058 human melanoma cells; test: LPA1 chemotaxis assay; type: cell-based; details: 100 nM LPA, read-out: inhibition of LPA-driven chemotaxis, IC50
Method: Chemotaxis of the A2058 human melanoma cells was measured using the Neuroprobe ChemoTx® System plates (8 μm pore size, 5.7 mm diameter sites). The filter sites were coated with 0.001% fibronectin (Sigma) in 20 mM Hepes, pH 7.4 and allowed to dry. A2058 cells were serum-starved for 24 hours, then harvested with Cell Stripper and resuspended in DMEM containing 0.1% fatty-acid-free bovine serum albumin (BSA) to a concentration of 1×10^6/ml. Cells were mixed with an equal volume of test compound (2×) in DMEM containing 0.1% fatty-acid-free BSA and incubated at 37° C. for 15 minutes. LPA (100 nM in DMEM containing 0.1% fatty-acid-free BSA) or vehicle was added to each well of the lower chamber and 50 μl of the cell suspension/test compound mix was applied to the upper portion of the ChemoTx plate. Plates were incubated at 37° C. for three hours and then the cells removed from the upper portion by rinsing with PBS and scraping. The filter was dried then stained with HEMA 3 Staining System (Fisher Scientific). The absorbance of the filter was read at 590 nm and IC50s were determined using Symyx Assay Explorer.

human LPA1 = target: T1, human LPA1 (Homo sapiens, UniProt Q92633); test: LPA1 calcium flux assay (HLPA1 Ca Flux); type: cell-based; details: CHO cells stably expressing human LPA1, stimulated with 10 nM LPA
T1 construct: the full-length cDNA for human LPA1 was obtained by PCR of the reverse transcription reaction; expressed in transfected cells
T1 sequence (Q92633 whole entry): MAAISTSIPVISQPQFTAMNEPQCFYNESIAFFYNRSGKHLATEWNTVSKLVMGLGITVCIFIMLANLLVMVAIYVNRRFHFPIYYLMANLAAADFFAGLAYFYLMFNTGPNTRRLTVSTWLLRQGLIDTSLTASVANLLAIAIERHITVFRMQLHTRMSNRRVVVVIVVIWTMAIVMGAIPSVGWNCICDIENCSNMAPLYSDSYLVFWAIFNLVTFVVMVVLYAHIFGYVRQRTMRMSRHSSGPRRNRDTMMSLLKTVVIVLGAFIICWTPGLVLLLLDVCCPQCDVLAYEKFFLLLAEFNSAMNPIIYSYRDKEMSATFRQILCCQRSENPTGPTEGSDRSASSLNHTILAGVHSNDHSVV

| Compound | pIC50 [3] | pIC50 (human LPA1) | LPA-induced and ascites-induced invasion activity [1] | in vitro migration in response to LPA and peritoneal fluid (ascites) from pancreatic cancer patients [2] | development of renal fibrosis in UUO mice (LPA receptor) |
| --- | --- | --- | --- | --- | --- |
| Cc1noc(-c2ccc(CSCCC(=O)O)cc2)c1NC(=O)OC(C)c1ccccc1Cl (stereo not drawn) [Ki16425] |  |  | blocked | effectively blocked | closely resembled the LPA1 (−/−) mice |
| Cc1noc(-c2ccc(-c3ccc(C4(C(=O)NS(C)(=O)=O)CC4)cc3)cc2)c1[C@H](O)COCc1ccccc1 [Compound 73, N-(1-{4′-[4-((S)-2-Benzyloxy-1-hydroxy-ethyl)-3-methyl-isoxazol-5-yl]-biphenyl-4-yl}-cyclopropanecarbonyl)-methanesulfonamide] | > 7.00 | > 6.52 |  |  |  |
| Cc1noc(-c2ccc(-c3ccc(C4(C(=O)O)CC4)cc3)cc2)c1[C@H](O)CO[C@H](C)c1ccccc1 [Compound 49, 1-(4′-{4-[(5)-1-Hydroxy-2-((R)-1-phenyl-ethoxy)-ethyl]-3-methyl-isoxazol-5-yl}-biphenyl-4-yl)-cyclopropanecarboxylic acid] | > 7.00 | > 6.52 |  |  |  |
| Cc1noc(-c2ccc(-c3ccc(C4(C(=O)O)CC4)cc3)cc2)c1NC(C)CCc1ccc(Cl)cc1 (stereo not drawn) [Compound 54, 1-(4′-{4-[3-(4-Chloro-phenyl)-1-methyl-propylamino]-3-methyl-isoxazol-5-yl}-biphenyl-4-yl)-cyclopropanecarboxylic acid] | > 7.00 | > 6.52 |  |  |  |

Now from value to molecule, other results behind:

| pIC50 [3] | pIC50 (human LPA1) | Compound | LPA-induced and ascites-induced invasion activity [1] | in vitro migration in response to LPA and peritoneal fluid (ascites) from pancreatic cancer patients [2] | development of renal fibrosis in UUO mice (LPA receptor) |
| --- | --- | --- | --- | --- | --- |
| > 7.00 | > 6.52 | Cc1noc(-c2ccc(-c3ccc(C4(C(=O)O)CC4)cc3)cc2)c1C(O)CSCc1ccccc1 (stereo not drawn) [Compound 38, 1-{4′-[4-(2-Benzylsulfanyl-1-hydroxy-ethyl)-3-methyl-isoxazol-5-yl]-biphenyl-4-yl}-cyclopropanecarboxylic acid] |  |  |  |
| > 7.00 | > 6.52 | Cc1noc(-c2ccc(-c3ccc(C4(C(=O)NS(C)(=O)=O)CC4)cc3)cc2)c1[C@H](O)CSCc1ccccc1 [Compound 77, N-(1-{4′-[4-((S)-2-Benzylsulfanyl-1-hydroxy-ethyl)-3-methyl-isoxazol-5-yl]-biphenyl-4-yl}-cyclopropanecarbonyl)-methanesulfonamide] |  |  |  |
| > 7.00 | > 6.52 | Cc1noc(-c2ccc(-c3ccc(C4(C(=O)O)CC4)cc3)cc2)c1CC(F)(F)CCc1ccccc1 [Compound 21, 1-{4′-[4-(2,2-Difluoro-4-phenyl-butyl)-3-methyl-isoxazol-5-yl]-biphenyl-4-yl}-cyclopropanecarboxylic acid] |  |  |  |
